Laboratory results reported in ChEMBL document CHEMBL3885861, “Open TG-GATES”.

Species: Rattus norvegicus
Assay: Open TG-GATES - Regimen: Single
Format: toxicity, organism-based, Sprague-Dawley
Design: regimen Single, gender Male, age 6 weeks
Settings: in vivo, po, 400 mg/kg, route gavage, dose level High; for APTT / Bas / Eos / Fbg / Hb / Ht / Lym / MCH / MCHC / MCV / Mono / Neu / PT / Plat / RBC / Ret / WBC: tissue Blood; for KIDNEY_L / KIDNEY_R / KIDNEY_TOTAL: tissue Kidney; for LIVER: tissue Liver; for A/G / ALP / ALT / AST / BUN / CRE / Ca / Cl / DBIL / GLC / IP / K / LDH / Na / PL / RALB / TBIL / TC / TG / TP / gamma-GTP: tissue Plasma

SMILES: Cc1cccc(C)c1OCC(C)N (configuration not stated) [MEXILETINE]
- TERMINAL_BW (3 h): 221.2 g
- APTT (3 h): 21.7 s
- Bas (3 h): 0%
- Eos (3 h): 1%
- Fbg (3 h): 292.2 mg/dL
- Hb (3 h): 12.9 g/dL
- Ht (3 h): 39.9%
- Lym (3 h): 75.8%
- MCH (3 h): 20.5 pg
- MCHC (3 h): 32.4%
- MCV (3 h): 63.2 fL
- Mono (3 h): 2.4%
- Neu (3 h): 20.6%
- PT (3 h): 16.5 s
- Plat (3 h): 108.6 x10_4/uL
- RBC (3 h): 632.4 x10_4/ul
- Ret (3 h): 7.4%
- WBC (3 h): 62.3 x10_2/uL
- KIDNEY_L (3 h): 1 g
- KIDNEY_R (3 h): 1.1 g
- KIDNEY_TOTAL (3 h): 2.1 g
- LIVER (3 h): 9.9 g
- A/G (3 h): 1.3
- ALP (3 h): 1366.2 IU/L
- ALT (3 h): 58.8 IU/L
- AST (3 h): 87.6 IU/L
- BUN (3 h): 12.2 mg/dL
- CRE (3 h): 0.1 mg/dL
- Ca (3 h): 10.4 mg/dL
- Cl (3 h): 106 meq/L
- DBIL (3 h): 0 mg/dL
- GLC (3 h): 174.4 mg/dL
- IP (3 h): 9.6 mg/dL
- K (3 h): 4 meq/L
- LDH (3 h): 168 IU/L
- Na (3 h): 141 meq/L
- PL (3 h): 122.6 mg/dL
- RALB (3 h): 3 g/dL
- TBIL (3 h): 0.028 mg/dL
- TC (3 h): 72.6 mg/dL
- TG (3 h): 46 mg/dL
- TP (3 h): 5.4 g/dL
- gamma-GTP (3 h): 1 IU/L
- TERMINAL_BW (6 h): 214.8 g
- APTT (6 h): 21.8 s
- Bas (6 h): 0%
- Eos (6 h): 0.6%
- Fbg (6 h): 411.6 mg/dL
- Hb (6 h): 13.6 g/dL
- Ht (6 h): 42.2%
- Lym (6 h): 71.2%
- MCH (6 h): 20.7 pg
- MCHC (6 h): 32.4%
- MCV (6 h): 64 fL
- Mono (6 h): 2%
- Neu (6 h): 25%
- PT (6 h): 16.1 s
- Plat (6 h): 109.7 x10_4/uL
- RBC (6 h): 660.2 x10_4/ul
- Ret (6 h): 7.1%
- WBC (6 h): 71.5 x10_2/uL
- KIDNEY_L (6 h): 0.9 g
- KIDNEY_R (6 h): 0.9 g
- KIDNEY_TOTAL (6 h): 1.9 g
- LIVER (6 h): 9.6 g
- A/G (6 h): 1.2
- ALP (6 h): 1714.4 IU/L
- ALT (6 h): 52 IU/L
- AST (6 h): 84.2 IU/L
- BUN (6 h): 10.2 mg/dL
- CRE (6 h): 0.2 mg/dL
- Ca (6 h): 10.3 mg/dL
- Cl (6 h): 107.2 meq/L
- DBIL (6 h): 0 mg/dL
- GLC (6 h): 186.8 mg/dL
- IP (6 h): 8.5 mg/dL
- K (6 h): 4.2 meq/L
- LDH (6 h): 190.4 IU/L
- Na (6 h): 141.8 meq/L
- PL (6 h): 133.2 mg/dL
- RALB (6 h): 3 g/dL
- TBIL (6 h): 0.02 mg/dL
- TC (6 h): 80.4 mg/dL
- TG (6 h): 34.8 mg/dL
- TP (6 h): 5.7 g/dL
- gamma-GTP (6 h): 1.6 IU/L
- TERMINAL_BW (9 h): 217.6 g
- APTT (9 h): 23.3 s
- Bas (9 h): 0%
- Eos (9 h): 0.8%
- Fbg (9 h): 309.4 mg/dL
- Hb (9 h): 12.7 g/dL
- Ht (9 h): 39.4%
- Lym (9 h): 72.8%
- MCH (9 h): 20.3 pg
- MCHC (9 h): 32.2%
- MCV (9 h): 63 fL
- Mono (9 h): 2.6%
- Neu (9 h): 23%
- PT (9 h): 16.1 s
- Plat (9 h): 109.3 x10_4/uL
- RBC (9 h): 626.4 x10_4/ul
- Ret (9 h): 7.6%
- WBC (9 h): 76 x10_2/uL
- KIDNEY_L (9 h): 1 g
- KIDNEY_R (9 h): 1 g
- KIDNEY_TOTAL (9 h): 2 g
- LIVER (9 h): 9.5 g
- A/G (9 h): 1.3
- ALP (9 h): 1243.2 IU/L
- ALT (9 h): 42.8 IU/L
- AST (9 h): 65 IU/L
- BUN (9 h): 8.6 mg/dL
- CRE (9 h): 0.1 mg/dL
- Ca (9 h): 10.3 mg/dL
- Cl (9 h): 107.2 meq/L
- DBIL (9 h): 0 mg/dL
- GLC (9 h): 186 mg/dL
- IP (9 h): 9.1 mg/dL
- K (9 h): 4.2 meq/L
- LDH (9 h): 146.4 IU/L
- Na (9 h): 141.4 meq/L
- PL (9 h): 144.8 mg/dL
- RALB (9 h): 3 g/dL
- TBIL (9 h): 0.026 mg/dL
- TC (9 h): 81.4 mg/dL
- TG (9 h): 45.4 mg/dL
- TP (9 h): 5.4 g/dL
- gamma-GTP (9 h): 1.4 IU/L
- TERMINAL_BW (24 h): 225.6 g
- APTT (24 h): 20.4 s
- Bas (24 h): 0%
- Eos (24 h): 1%
- Fbg (24 h): 313.6 mg/dL
- Hb (24 h): 13.4 g/dL
- Ht (24 h): 41%
- Lym (24 h): 80%
- MCH (24 h): 20.5 pg
- MCHC (24 h): 32.8%
- MCV (24 h): 62.5 fL
- Mono (24 h): 2.6%
- Neu (24 h): 15.6%
- PT (24 h): 16.3 s
- Plat (24 h): 106 x10_4/uL
- RBC (24 h): 656.8 x10_4/ul
- Ret (24 h): 7.1%
- WBC (24 h): 76.9 x10_2/uL
- KIDNEY_L (24 h): 1 g
- KIDNEY_R (24 h): 1 g
- KIDNEY_TOTAL (24 h): 2 g
- LIVER (24 h): 10.5 g
- A/G (24 h): 1.2
- ALP (24 h): 1526.6 IU/L
- ALT (24 h): 50.2 IU/L
- AST (24 h): 71.4 IU/L
- BUN (24 h): 14.6 mg/dL
- CRE (24 h): 0.2 mg/dL
- Ca (24 h): 10.6 mg/dL
- Cl (24 h): 105 meq/L
- DBIL (24 h): 0 mg/dL
- GLC (24 h): 182.2 mg/dL
- IP (24 h): 8.2 mg/dL
- K (24 h): 4.2 meq/L
- LDH (24 h): 170.6 IU/L
- Na (24 h): 142.6 meq/L
- PL (24 h): 163 mg/dL
- RALB (24 h): 3.1 g/dL
- TBIL (24 h): 0.004 mg/dL
- TC (24 h): 89 mg/dL
- TG (24 h): 120.2 mg/dL
- TP (24 h): 5.6 g/dL
- gamma-GTP (24 h): 1.6 IU/L
